Assay results published in ChEMBL document CHEMBL5034036, “Aryloxy Pivaloyloxymethyl Prodrugs as Nucleoside Monophosphate Prodrugs” (J Med Chem, 2021).

Experiments:
A549 [1] = assay: Cytotoxicity against human A549 cells after 48 hrs measured by MTT assay; format: functional, cell-based; settings: A549, 48 h
A549 [2] = assay: Cytotoxicity against human A549 cells after 24 hrs measured by MTT assay; format: functional, cell-based; settings: A549, 24 h
MCF7 [3] = assay: Cytotoxicity against human MCF7 cells assessed as inhibition of cell proliferation measured after 24 hrs by MTT assay; format: functional, cell-based; settings: MCF7, 24 h
MCF7 [4] = assay: Cytotoxicity against human MCF7 cells assessed as inhibition of cell proliferation measured after 48 hrs by MTT assay; format: functional, cell-based; settings: MCF7, 48 h
[5] = Drug metabolism assessed as recombinant carboxypeptidase Y-mediated metabolite formation measured measured by 31P-NMR analysis; format: ADME; settings: saccharomyces cerevisiae
Liver carboxylesterase = biological target: T1, Liver carboxylesterase (Sus scrofa, UniProt Q29550); assay: Stability in porcine liver esterase assessed as intact compound measured by NMR analysis; format: ADME; settings: pig
T1 sequence (Q29550 whole entry): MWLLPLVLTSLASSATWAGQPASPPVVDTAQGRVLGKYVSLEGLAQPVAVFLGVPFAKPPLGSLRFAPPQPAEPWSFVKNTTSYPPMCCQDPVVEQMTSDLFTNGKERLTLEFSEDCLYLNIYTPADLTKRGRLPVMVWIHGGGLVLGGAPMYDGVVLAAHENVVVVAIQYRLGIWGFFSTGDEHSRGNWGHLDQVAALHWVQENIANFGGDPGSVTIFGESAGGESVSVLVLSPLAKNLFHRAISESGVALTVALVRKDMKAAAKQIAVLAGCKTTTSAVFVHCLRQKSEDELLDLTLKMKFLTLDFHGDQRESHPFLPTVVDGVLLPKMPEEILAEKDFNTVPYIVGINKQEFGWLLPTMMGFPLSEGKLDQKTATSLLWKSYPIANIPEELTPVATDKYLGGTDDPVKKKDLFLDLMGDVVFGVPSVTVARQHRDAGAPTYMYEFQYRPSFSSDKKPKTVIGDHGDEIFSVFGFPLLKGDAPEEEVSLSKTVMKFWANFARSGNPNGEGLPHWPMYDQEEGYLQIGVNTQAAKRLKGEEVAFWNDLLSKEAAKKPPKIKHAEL

[6] = Drug metabolism in human serum assessed as metabolite B formation by 31P-NMR analysis; format: ADME, cell-free
[7] = Serum stability of the compound in human serum assessed as half life measured by 31P-NMR analysis; format: ADME, cell-free

SMILES	IC50 (A549 [1])	IC50 (A549 [2])	IC50 (MCF7 [3])	IC50 (MCF7 [4])	Drug metabolism [5]	Stability (Liver carboxylesterase)	Drug metabolism [6]	half-life [7]
COC(=O)[C@H](C)NP(=O)(OC[C@H]1O[C@@H](n2cc(F)c(=O)[nH]c2=O)C[C@@H]1O)Oc1ccccc1 (stereo partly drawn)	36 µM	69.5 µM	> 100 µM	84.8 µM	–	–	–	–
CC(C)(C)C(=O)OCOP(=O)(OC[C@H]1O[C@@H](n2cc(F)c(=O)[nH]c2=O)C[C@@H]1O)Oc1cccc2ccccc12 (stereo partly drawn)	34.5 µM	52.5 µM	28.8 µM	35.5 µM	–	–	–	–
O=c1[nH]c(=O)n([C@H]2C[C@H](O)[C@@H](CO)O2)cc1F [FLOXURIDINE]	> 100 µM	> 100 µM	> 100 µM	46.9 µM	–	–	–	–
CC(C)(C)C(=O)OCOP(=O)(OC[C@H]1O[C@@H](n2cc(F)c(=O)[nH]c2=O)C[C@@H]1O)Oc1ccccc1 (stereo partly drawn)	–	–	63.6 µM	13.1 µM	Metabolite_Notdetected	Stable	Metabolite_Detected	≥ 12 h
